Bridge positions count the residues as written; N and C are the ends. Square brackets hold non-standard residues; d marks the D form. Peptide text beside a SMILES is read from it. * marks the point of attachment. ξ: configuration not given here. Bip = N[C@@H](Cc1ccc(-c2ccccc2)cc1)C(=O)O; Phe(3-Me) = Cc1cccc(C[C@H](N)C(=O)O)c1; Ala(4-THP) = N[C@@H](CC1CCOCC1)C(=O)O; Cha = N[C@@H](CC1CCCCC1)C(=O)O; Cit = NC(=O)NCCC[C@H](N)C(=O)O; Thr(3ξ) = CC(O)[C@H](N)C(=O)O; Ala(CN) = N#CC[C@H](N)C(=O)O; Carboxymethyl = O=C(O)C*; Orn = NCCC[C@H](N)C(=O)O; Aun = NCCCCCCCCCCC(=O)O; Dab = NCC[C@H](N)C(=O)O
Target: T1, PD-1/PD-L1 interaction (PE-labeled human PD-L1-Ig binding to Jurkat cell line over-expressing human PD-1) (Homo sapiens, UniProt Q15116)
T1 construct: expressed in transfected cells; host or cells: Jurkat
Experiment: Jurkat-PD-1 Cell Binding High-Content Screening Assay (CBA)
Format: cell-based
Conditions: Jurkat cell line over-expressing human PD-1; PE-labeled PD-L1-Ig 20 nM final; read-out: Jurkat hPD1-PDL1 IC50
In short: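 Jurkat cells stably over-expressing human PD-1 were seeded in DMEM with 10% fetal calf serum and pre-incubated with compound for 2 h at 37° C. PE-labeled human PD-L1-Ig was then added at 20 nM final for 1 hour, after which cells were fixed with paraformaldehyde, Hoechst-stained and imaged by high-content microscopy.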

T1 sequence (Q15116 25-288): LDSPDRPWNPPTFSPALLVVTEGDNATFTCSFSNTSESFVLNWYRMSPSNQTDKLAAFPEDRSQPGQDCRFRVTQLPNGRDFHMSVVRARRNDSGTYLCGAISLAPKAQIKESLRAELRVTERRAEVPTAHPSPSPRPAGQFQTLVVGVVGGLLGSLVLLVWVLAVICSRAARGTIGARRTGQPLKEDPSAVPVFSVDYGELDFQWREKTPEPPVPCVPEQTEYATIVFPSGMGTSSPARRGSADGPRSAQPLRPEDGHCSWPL

| Compound | IC50 |
| --- | --- |
| CC(C)C[C@H]1NC(=O)[C@H](CCCN)NC(=O)[C@H](Cc2ccc(O)cc2)NC(=O)[C@H](Cc2ccc(-c3ccccc3)cc2)NC(=O)[C@H](C(C)C)NC(=O)[C@H](Cc2c[nH]c3ccccc23)NC(=O)[C@H](CC(=O)O)NC(=O)[C@H](Cc2ccc(OCC(=O)O)cc2)NC(=O)[C@H](C(C)O)NC(=O)CSC[C@@H](C(=O)N[C@@H](CCN)C(=O)NCCCCCCCCCCC(=O)O)NC(=O)[C@H](CC2CCOCC2)NC(=O)[C@H](C(C)C)NC(=O)[C@H](CC2CCCCC2)NC(=O)[C@H](CCN)NC1=O (stereo partly drawn) [Compound 3424] ({CH2CO}-[Thr(3ξ)]Y(Carboxymethyl)DWV[Bip]Y[Orn][dL][Dab][Cha]V[Ala(4-THP)]C[Dab][Aun]-OH; thioether N-14) | 133 nM |
| CC(C)C[C@H]1NC(=O)[C@H](CCCN)NC(=O)[C@H](Cc2ccc(O)cc2)NC(=O)[C@H](Cc2ccc(-c3ccccc3)cc2)NC(=O)[C@H](C(C)C)NC(=O)[C@H](Cc2c[nH]c3ccccc23)NC(=O)[C@H](CC(=O)O)NC(=O)[C@H](Cc2ccc(OCC(=O)O)cc2)NC(=O)[C@H](CC(N)=O)NC(=O)CSC[C@@H](C(=O)N[C@@H](CCN)C(=O)NCCCCCCCCCCC(=O)O)NC(=O)[C@H](CC#N)NC(=O)[C@H](C(C)C)NC(=O)[C@H](CC2CCCCC2)NC(=O)[C@H](CCN)NC1=O [Compound 3425] ({CH2CO}-NY(Carboxymethyl)DWV[Bip]Y[Orn][dL][Dab][Cha]V[Ala(CN)]C[Dab][Aun]-OH; thioether N-14) | 54.8 nM |
| Cc1cccc(C[C@@H]2NC(=O)[C@H](CC(=O)O)NC(=O)[C@H](Cc3ccc(OCC(=O)O)cc3)NC(=O)[C@H](C(C)O)NC(=O)CSC[C@@H](C(=O)N[C@@H](CC(N)=O)C(=O)NCCCCCCCCCCC(=O)O)NC(=O)[C@H](C(C)O)NC(=O)[C@H](C(C)C)NC(=O)[C@H](CC3CCCCC3)NC(=O)[C@H](CCN)NC(=O)[C@@H](CC(C)C)NC(=O)[C@H](CCCN)NC(=O)[C@H](Cc3ccc(O)cc3)NC(=O)[C@H](Cc3ccc(-c4ccccc4)cc3)NC(=O)[C@H](C(C)C)NC2=O)c1 (stereo partly drawn) [Compound 3427] ({CH2CO}-[Thr(3ξ)]Y(Carboxymethyl)D[Phe(3-Me)]V[Bip]Y[Orn][dL][Dab][Cha]V[Thr(3ξ)]CN[Aun]-OH; thioether N-14) | 16.8 nM |
| CC(C)C[C@H]1NC(=O)[C@H](CCCN)NC(=O)[C@H](Cc2ccc(O)cc2)NC(=O)[C@H](Cc2ccc(-c3ccccc3)cc2)NC(=O)[C@H](Cc2ccc(O)cc2)NC(=O)[C@H](Cc2c[nH]c3ccccc23)NC(=O)[C@H](CC(=O)O)NC(=O)[C@H](Cc2ccc(OCC(=O)O)cc2)NC(=O)[C@H](C(C)O)NC(=O)CSC[C@@H](C(=O)N[C@H](CC(N)=O)C(=O)NCCCCCCCCCCC(=O)O)NC(=O)[C@H](C(C)O)NC(=O)[C@H](C(C)C)NC(=O)[C@H](CC2CCCCC2)NC(=O)[C@H](CCN)NC1=O (stereo partly drawn) [Compound 3429] ({CH2CO}-[Thr(3ξ)]Y(Carboxymethyl)DWY[Bip]Y[Orn][dL][Dab][Cha]V[Thr(3ξ)]C[dN][Aun]-OH; thioether N-14) | 41.5 nM |
| CC(C)C[C@H]1NC(=O)[C@H](CCCN)NC(=O)[C@H](Cc2ccc(O)cc2)NC(=O)[C@H](Cc2ccc(-c3ccccc3)cc2)NC(=O)[C@H](Cc2ccc(O)cc2)NC(=O)[C@H](Cc2c[nH]c3ccccc23)NC(=O)[C@H](CC(=O)O)NC(=O)[C@H](Cc2ccc(OCC(=O)O)cc2)NC(=O)[C@H](C(C)O)NC(=O)CSC[C@@H](C(=O)N[C@H](CC(N)=O)C(=O)NCCCCCCCCCCC(=O)O)NC(=O)[C@H](CCC(N)=O)NC(=O)[C@H](C(C)C)NC(=O)[C@H](CC2CCCCC2)NC(=O)[C@H](CCN)NC1=O (stereo partly drawn) [Compound 3433] ({CH2CO}-[Thr(3ξ)]Y(Carboxymethyl)DWY[Bip]Y[Orn][dL][Dab][Cha]VQC[dN][Aun]-OH; thioether N-14) | 40.6 nM |
| Cc1cccc(C[C@@H]2NC(=O)[C@H](CC(=O)O)NC(=O)[C@H](Cc3ccc(OCC(=O)O)cc3)NC(=O)[C@H](C(C)O)NC(=O)CSC[C@@H](C(=O)N[C@H](CC(N)=O)C(=O)NCCCCCCCCCCC(=O)O)NC(=O)[C@H](C(C)O)NC(=O)[C@H](C(C)C)NC(=O)[C@H](CC3CCCCC3)NC(=O)[C@H](CCN)NC(=O)[C@@H](CC(C)C)NC(=O)[C@H](CCCN)NC(=O)[C@H](C(C)C)NC(=O)[C@H](Cc3ccc(-c4ccccc4)cc3)NC(=O)[C@H](C(C)C)NC2=O)c1 (stereo partly drawn) [Compound 3436] ({CH2CO}-[Thr(3ξ)]Y(Carboxymethyl)D[Phe(3-Me)]V[Bip]V[Orn][dL][Dab][Cha]V[Thr(3ξ)]C[dN][Aun]-OH; thioether N-14) | 17 nM |

Molecules with a lower IC50, results first:

| IC50 | Compound |
| --- | --- |
| 10.7 nM | Cc1cccc(C[C@@H]2NC(=O)[C@H](CC(=O)O)NC(=O)[C@H](Cc3ccc(OCC(=O)O)cc3)NC(=O)[C@H](C(C)O)NC(=O)CSC[C@@H](C(=O)N[C@@H](CC(N)=O)C(=O)NCCCCCCCCCCC(=O)O)NC(=O)[C@H](CCCNC(N)=O)NC(=O)[C@H](C(C)C)NC(=O)[C@H](CC3CCCCC3)NC(=O)[C@H](CCN)NC(=O)[C@@H](CC(C)C)NC(=O)[C@H](CCCN)NC(=O)[C@H](Cc3ccc(O)cc3)NC(=O)[C@H](Cc3ccc(-c4ccccc4)cc3)NC(=O)[C@H](C(C)C)NC2=O)c1 (stereo partly drawn) [Compound 3426] ({CH2CO}-[Thr(3ξ)]Y(Carboxymethyl)D[Phe(3-Me)]V[Bip]Y[Orn][dL][Dab][Cha]V[Cit]CN[Aun]-OH; thioether N-14) |
| 9.8 nM | Cc1cccc(C[C@@H]2NC(=O)[C@H](CC(=O)O)NC(=O)[C@H](Cc3ccc(OCC(=O)O)cc3)NC(=O)[C@H](C(C)O)NC(=O)CSC[C@@H](C(=O)N[C@H](CC(N)=O)C(=O)NCCCCCCCCCCC(=O)O)NC(=O)[C@H](CCC(N)=O)NC(=O)[C@H](C(C)C)NC(=O)[C@H](CC3CCCCC3)NC(=O)[C@H](CCN)NC(=O)[C@@H](CC(C)C)NC(=O)[C@H](CCCN)NC(=O)[C@H](Cc3ccc(O)cc3)NC(=O)[C@H](Cc3ccc(-c4ccccc4)cc3)NC(=O)[C@H](C(C)C)NC2=O)c1 (stereo partly drawn) [Compound 3428] ({CH2CO}-[Thr(3ξ)]Y(Carboxymethyl)D[Phe(3-Me)]V[Bip]Y[Orn][dL][Dab][Cha]VQC[dN][Aun]-OH; thioether N-14) |
| 7.6 nM | Cc1cccc(C[C@@H]2NC(=O)[C@H](CC(=O)O)NC(=O)[C@H](Cc3ccc(OCC(=O)O)cc3)NC(=O)[C@H](C(C)O)NC(=O)CSC[C@@H](C(=O)N[C@H](CC(N)=O)C(=O)NCCCCCCCCCCC(=O)O)NC(=O)[C@H](C(C)O)NC(=O)[C@H](C(C)C)NC(=O)[C@H](CC3CCCCC3)NC(=O)[C@H](CCN)NC(=O)[C@@H](CC(C)C)NC(=O)[C@H](CCCN)NC(=O)[C@H](CCC(N)=O)NC(=O)[C@H](Cc3ccc(-c4ccccc4)cc3)NC(=O)[C@H](C(C)C)NC2=O)c1 (stereo partly drawn) [Compound 3430] ({CH2CO}-[Thr(3ξ)]Y(Carboxymethyl)D[Phe(3-Me)]V[Bip]Q[Orn][dL][Dab][Cha]V[Thr(3ξ)]C[dN][Aun]-OH; thioether N-14) |
| 4.9 nM | CC(=O)NCCCC[C@@H]1NC(=O)[C@H](Cc2ccc(-c3ccccc3)cc2)NC(=O)[C@H](C(C)C)NC(=O)[C@H](Cc2cccc(C)c2)NC(=O)[C@H](CC(=O)O)NC(=O)[C@H](Cc2ccc(OCC(=O)O)cc2)NC(=O)[C@H](C(C)O)NC(=O)CSC[C@@H](C(=O)N[C@H](CC(N)=O)C(=O)NCCCCCCCCCCC(=O)O)NC(=O)[C@H](C(C)O)NC(=O)[C@H](C(C)C)NC(=O)[C@H](CC2CCCCC2)NC(=O)[C@H](CCN)NC(=O)[C@@H](CC(C)C)NC(=O)[C@H](CCCN)NC1=O (stereo partly drawn) [Compound 3431] ({CH2CO}-[Thr(3ξ)]Y(Carboxymethyl)D[Phe(3-Me)]V[Bip]K(Ac)[Orn][dL][Dab][Cha]V[Thr(3ξ)]C[dN][Aun]-OH; thioether N-14) |
| 11.4 nM | Cc1cccc(C[C@@H]2NC(=O)[C@H](CC(=O)O)NC(=O)[C@H](Cc3ccc(OCC(=O)O)cc3)NC(=O)[C@H](C(C)O)NC(=O)CSC[C@@H](C(=O)N[C@H](CC(N)=O)C(=O)NCCCCCCCCCCC(=O)O)NC(=O)[C@H](CO)NC(=O)[C@H](C(C)C)NC(=O)[C@H](CC3CCCCC3)NC(=O)[C@H](CCN)NC(=O)[C@@H](CC(C)C)NC(=O)[C@H](CCCN)NC(=O)[C@H](Cc3ccc(O)cc3)NC(=O)[C@H](Cc3ccc(-c4ccccc4)cc3)NC(=O)[C@H](C(C)C)NC2=O)c1 (stereo partly drawn) [Compound 3432] ({CH2CO}-[Thr(3ξ)]Y(Carboxymethyl)D[Phe(3-Me)]V[Bip]Y[Orn][dL][Dab][Cha]VSC[dN][Aun]-OH; thioether N-14) |
| 10.5 nM | Cc1cccc(C[C@@H]2NC(=O)[C@H](CC(=O)O)NC(=O)[C@H](Cc3ccc(OCC(=O)O)cc3)NC(=O)[C@H](CCCNC(=N)N)NC(=O)CSC[C@@H](C(=O)N[C@H](CC(N)=O)C(=O)NCCCCCCCCCCC(=O)O)NC(=O)[C@H](CCC(N)=O)NC(=O)[C@H](C(C)C)NC(=O)[C@H](CC3CCCCC3)NC(=O)[C@H](CCN)NC(=O)[C@@H](CC(C)C)NC(=O)[C@H](CCCN)NC(=O)[C@H](CCCNC(N)=O)NC(=O)[C@H](Cc3ccc(-c4ccccc4)cc3)NC(=O)[C@H](C(C)C)NC2=O)c1 [Compound 3434] ({CH2CO}-RY(Carboxymethyl)D[Phe(3-Me)]V[Bip][Cit][Orn][dL][Dab][Cha]VQC[dN][Aun]-OH; thioether N-14) |
| 12.9 nM | Cc1cccc(C[C@@H]2NC(=O)[C@H](CC(=O)O)NC(=O)[C@H](Cc3ccc(OCC(=O)O)cc3)NC(=O)[C@H](C(C)O)NC(=O)CSC[C@@H](C(=O)N[C@H](CCC(=O)O)C(=O)NCCCCCCCCCCC(=O)O)NC(=O)[C@H](C(C)O)NC(=O)[C@H](C(C)C)NC(=O)[C@H](CC3CCCCC3)NC(=O)[C@H](CCN)NC(=O)[C@@H](CC(C)C)NC(=O)[C@H](CCCN)NC(=O)[C@H](C(C)C)NC(=O)[C@H](Cc3ccc(-c4ccccc4)cc3)NC(=O)[C@H](Cc3ccc(O)cc3)NC2=O)c1 (stereo partly drawn) [Compound 3435] ({CH2CO}-[Thr(3ξ)]Y(Carboxymethyl)D[Phe(3-Me)]Y[Bip]V[Orn][dL][Dab][Cha]V[Thr(3ξ)]C[dE][Aun]-OH; thioether N-14) |
